Experimental data as given in ChEMBL document CHEMBL1133427, “Membrane-permeant, bioactivatable analogues of cGMP as inducers of cell death in IPC-81 leukemia cells” (Bioorg Med Chem Lett, 2000).
The source made the active and inactive calls. No cut-off for these calls is given here.

Legend:
[1] = Effective dose of compound required to induce death in IPC-81 leukemia cells; Range 40-80; type: functional, cell-based, Rattus norvegicus
[2] = species: Rattus norvegicus; experiment: Compound was tested as initiator of cell death in IPC-81 leukemia cells; Inactive; type: functional, cell-based

| Compound | EC50 [1] | Activity [2] |
| --- | --- | --- |
| CC(=O)OCOP1(=O)OC[C@@H]2O[C@@H](n3cnc4c(=O)n(C)c(N)nc43)[C@H](O)[C@@H]2O1 (stereo partly specified) | 80 µM | inactive |
| CC(=O)OCOP1(=O)OC[C@@H]2O[C@@H](n3c(Br)nc4c(O)nc(N)nc43)[C@H](O)[C@@H]2O1 (stereo partly specified) | 80 µM | inactive |
| CC(=O)OCOP1(=O)OC[C@@H]2O[C@@H](N3C(Sc4ccc(Cl)cc4)=NC4C(=O)N=C(N)N=C43)[C@H](O)[C@@H]2O1 (stereo partly specified) | – | inactive |
| CC(=O)OCOP1(=O)OCC2OC(n3cnc4c(=O)n(C)c(N)nc43)CC(O)C2O1 (stereo unspecified) | – | inactive |
